Laboratory results: US11452727B2, “Combination therapy for treating cancer” (Epizyme, Inc., priority 2017, dated 2022)

Experiments:
Assay in all cases: In vitro combination study with tazemetostat, cell proliferation (Cell Titer Glo)
A427 = settings: for combinatorial effect with tazemetostat (Loewe volume class): A427, 7 days tazemetostat pre-treatment, 6 days co-treatment with second agent
Method: (§1) Initial proliferation studies were performed to determine the IC50 of tazemetostat in each cell line. For the screen, tazemetostat was used at concentrations bracketed around the IC50 value. If 50% inhibitory concentration was not reached then tazemetostat was tested starting at 10 μM.
(§2) In order to study the effect of dual combination of tazemetostat and a second agent on cell proliferation, cells in log-linear phase growth rate were pre-treated with various concentrations of tazemetostat or DMSO for 7 days in flasks, plated in 384-well plates in the absence of compounds and co-treated on day 8 with tazemetostat or DMSO and the second agent serially diluted for additional 6 days (as depicted in FIG. 1). On day 15, plates were developed for endpoint analysis using Cell Titer Glo to measure ATP content, which was used as an indicator of cell viability. DMSO concentration was kept constant throughout the assay at 0.15% v/v.
(§3) All cell lines were obtained from American Type Culture Collection (ATCC; Rockville, Md.). […] A427, Calu-3, Calu-6 cell lines were cultured in EMEM+10% Fetal bovine serum (FBS)+1% v/v Penicillin/Streptomycin (P/S).

A549 = settings: 7 days tazemetostat pre-treatment, 6 days co-treatment with second agent
Method: as §1, §2

NCI-H1299 = settings: 7 days tazemetostat pre-treatment, 6 days co-treatment with second agent
NCI-H1573 = settings: 7 days tazemetostat pre-treatment, 6 days co-treatment with second agent
NCI-H1703 = settings: 7 days tazemetostat pre-treatment, 6 days co-treatment with second agent
NCI-H1793 = settings: 7 days tazemetostat pre-treatment, 6 days co-treatment with second agent
Method: as §1, §2
(§4) NCI-H1573 was cultured in DMEM: F12 Medium containing the following components: 0.02 mg/ml insulin, 0.01 mg/ml transferrin, 25 nM sodium selenite, 50 nM Hydrocortisone, 1 ng/ml Epidermal Growth Factor, 0.01 mM ethanolamine, 0.01 mM phosphorylethanolamine, 100 pM triiodothyronine, 0.5% (w/v) bovine serum albumin, 0.5 mM sodium pyruvate, 4.5 mM L-glutamine and 1% v/v Pen/Strep.

NCI-H1993 = settings: 7 days tazemetostat pre-treatment, 6 days co-treatment with second agent
Method: as §1, §2

NCI-H2030 = settings: 7 days tazemetostat pre-treatment, 6 days co-treatment with second agent
NCI-H2110 = settings: 7 days tazemetostat pre-treatment, 6 days co-treatment with second agent
NCI-H2122 = settings: 7 days tazemetostat pre-treatment, 6 days co-treatment with second agent
Method: as §1, §2, §3

NCI-H23 = settings: 7 days tazemetostat pre-treatment, 6 days co-treatment with second agent
Method: as §1, §2, §3

NCI-H460 = settings: 7 days tazemetostat pre-treatment, 6 days co-treatment with second agent
NCI-H522 = settings: 7 days tazemetostat pre-treatment, 6 days co-treatment with second agent
Method: as §1, §2

NCI-H661 = settings: 7 days tazemetostat pre-treatment, 6 days co-treatment with second agent
Method: as §1, §2, §3

NCI-H838 = settings: 7 days tazemetostat pre-treatment, 6 days co-treatment with second agent
Method: as §1, §2, §4

Calu-3 = settings: 7 days tazemetostat pre-treatment, 6 days co-treatment with second agent
Method: as §1, §2, §4

Calu-6 = settings: 7 days tazemetostat pre-treatment, 6 days co-treatment with second agent
HCC827 = settings: 7 days tazemetostat pre-treatment, 6 days co-treatment with second agent

SMILES: CCN1CCN(Cc2ccc(Nc3ncc(F)c(-c4cc(F)c5nc(C)n(C(C)C)c5c4)n3)nc2)CC1 [Abemaciclib, abemaciclib]
- combinatorial effect with tazemetostat (Loewe volume class) (A427): Syn. (Loewe volumes greater than 1 denoted “synergy”)
- combinatorial effect with tazemetostat (Loewe volume class) (A549): Add. (A value between −1 and 1 denoted “additivity”)
- combinatorial effect with tazemetostat (Loewe volume class) (NCI-H1299): Anta. (volumes <−1 denoted “antagonism”)
- combinatorial effect with tazemetostat (Loewe volume class) (NCI-H1573): Add. (A value between −1 and 1 denoted “additivity”)
- combinatorial effect with tazemetostat (Loewe volume class) (NCI-H1703): Add. (A value between −1 and 1 denoted “additivity”)
- combinatorial effect with tazemetostat (Loewe volume class) (NCI-H1793): Syn. (Loewe volumes greater than 1 denoted “synergy”)
- combinatorial effect with tazemetostat (Loewe volume class) (NCI-H1993): Syn. (Loewe volumes greater than 1 denoted “synergy”)
- combinatorial effect with tazemetostat (Loewe volume class) (NCI-H2030): Syn. (Loewe volumes greater than 1 denoted “synergy”)
- combinatorial effect with tazemetostat (Loewe volume class) (NCI-H2110): Add. (A value between −1 and 1 denoted “additivity”)
- combinatorial effect with tazemetostat (Loewe volume class) (NCI-H2122): Anta. (volumes <−1 denoted “antagonism”)
- combinatorial effect with tazemetostat (Loewe volume class) (NCI-H23): Add. (A value between −1 and 1 denoted “additivity”)
- combinatorial effect with tazemetostat (Loewe volume class) (NCI-H460): Add. (A value between −1 and 1 denoted “additivity”)
- combinatorial effect with tazemetostat (Loewe volume class) (NCI-H522): Add. (A value between −1 and 1 denoted “additivity”)
- combinatorial effect with tazemetostat (Loewe volume class) (NCI-H661): Syn. (Loewe volumes greater than 1 denoted “synergy”)
- combinatorial effect with tazemetostat (Loewe volume class) (NCI-H838): Add. (A value between −1 and 1 denoted “additivity”)
- combinatorial effect with tazemetostat (Loewe volume class) (Calu-3): Add. (A value between −1 and 1 denoted “additivity”)
- combinatorial effect with tazemetostat (Loewe volume class) (Calu-6): Syn. (Loewe volumes greater than 1 denoted “synergy”)
- combinatorial effect with tazemetostat (Loewe volume class) (HCC827): Add. (A value between −1 and 1 denoted “additivity”)

SMILES: Cc1cc(Nc2ncc(Cl)c(Nc3ccccc3S(=O)(=O)C(C)C)n2)c(OC(C)C)cc1C1CCNCC1 [Ceritinib, ceritinib]
- combinatorial effect with tazemetostat (Loewe volume class) (A427): Syn. (Loewe volumes greater than 1 denoted “synergy”)
- synergy with an EZH2 inhibitor (tazemetostat) (A427; A427 cells, dose matrix, Loewe excess matrix, isobologram (FIG. 2-5)): synergy
- combinatorial effect with tazemetostat (Loewe volume class) (A549): Add. (A value between −1 and 1 denoted “additivity”)
- combinatorial effect with tazemetostat (Loewe volume class) (NCI-H1299): Add. (A value between −1 and 1 denoted “additivity”)
- combinatorial effect with tazemetostat (Loewe volume class) (NCI-H1573): Syn. (Loewe volumes greater than 1 denoted “synergy”)
- combinatorial effect with tazemetostat (Loewe volume class) (NCI-H1703): Add. (A value between −1 and 1 denoted “additivity”)
- combinatorial effect with tazemetostat (Loewe volume class) (NCI-H1793): Add. (A value between −1 and 1 denoted “additivity”)
- combinatorial effect with tazemetostat (Loewe volume class) (NCI-H1993): Syn. (Loewe volumes greater than 1 denoted “synergy”)
- combinatorial effect with tazemetostat (Loewe volume class) (NCI-H2030): Add. (A value between −1 and 1 denoted “additivity”)
- combinatorial effect with tazemetostat (Loewe volume class) (NCI-H2110): Add. (A value between −1 and 1 denoted “additivity”)
- combinatorial effect with tazemetostat (Loewe volume class) (NCI-H2122): Anta. (volumes <−1 denoted “antagonism”)
- combinatorial effect with tazemetostat (Loewe volume class) (NCI-H23): Add. (A value between −1 and 1 denoted “additivity”)
- combinatorial effect with tazemetostat (Loewe volume class) (NCI-H460): Add. (A value between −1 and 1 denoted “additivity”)
- combinatorial effect with tazemetostat (Loewe volume class) (NCI-H522): Add. (A value between −1 and 1 denoted “additivity”)
- combinatorial effect with tazemetostat (Loewe volume class) (NCI-H661): Syn. (Loewe volumes greater than 1 denoted “synergy”)
- combinatorial effect with tazemetostat (Loewe volume class) (NCI-H838): Syn. (Loewe volumes greater than 1 denoted “synergy”)
- combinatorial effect with tazemetostat (Loewe volume class) (Calu-3): Add. (A value between −1 and 1 denoted “additivity”)
- combinatorial effect with tazemetostat (Loewe volume class) (Calu-6): Add. (A value between −1 and 1 denoted “additivity”)
- combinatorial effect with tazemetostat (Loewe volume class) (HCC827): Add. (A value between −1 and 1 denoted “additivity”)

SMILES: Nc1ccn([C@@H]2O[C@H](CO)[C@@H](O)C2(F)F)c(=O)n1 [Gemcitabine, gemcitabine]
- combinatorial effect with tazemetostat (Loewe volume class) (A427): Syn. (Loewe volumes greater than 1 denoted “synergy”)
- combinatorial effect with tazemetostat (Loewe volume class) (A549): Add. (A value between −1 and 1 denoted “additivity”)
- combinatorial effect with tazemetostat (Loewe volume class) (NCI-H1299): Add. (A value between −1 and 1 denoted “additivity”)
- combinatorial effect with tazemetostat (Loewe volume class) (NCI-H1573): Add. (A value between −1 and 1 denoted “additivity”)
- combinatorial effect with tazemetostat (Loewe volume class) (NCI-H1703): Add. (A value between −1 and 1 denoted “additivity”)
- combinatorial effect with tazemetostat (Loewe volume class) (NCI-H1793): Add. (A value between −1 and 1 denoted “additivity”)
- combinatorial effect with tazemetostat (Loewe volume class) (NCI-H1993): Add. (A value between −1 and 1 denoted “additivity”)
- combinatorial effect with tazemetostat (Loewe volume class) (NCI-H2030): Add. (A value between −1 and 1 denoted “additivity”)
- combinatorial effect with tazemetostat (Loewe volume class) (NCI-H2110): Anta. (volumes <−1 denoted “antagonism”)
- combinatorial effect with tazemetostat (Loewe volume class) (NCI-H2122): Add. (A value between −1 and 1 denoted “additivity”)
- combinatorial effect with tazemetostat (Loewe volume class) (NCI-H23): Add. (A value between −1 and 1 denoted “additivity”)
- combinatorial effect with tazemetostat (Loewe volume class) (NCI-H460): Add. (A value between −1 and 1 denoted “additivity”)
- combinatorial effect with tazemetostat (Loewe volume class) (NCI-H522): Anta. (volumes <−1 denoted “antagonism”)
- combinatorial effect with tazemetostat (Loewe volume class) (NCI-H661): Syn. (Loewe volumes greater than 1 denoted “synergy”)
- combinatorial effect with tazemetostat (Loewe volume class) (NCI-H838): Add. (A value between −1 and 1 denoted “additivity”)
- combinatorial effect with tazemetostat (Loewe volume class) (Calu-3): Add. (A value between −1 and 1 denoted “additivity”)
- combinatorial effect with tazemetostat (Loewe volume class) (Calu-6): Add. (A value between −1 and 1 denoted “additivity”)
- combinatorial effect with tazemetostat (Loewe volume class) (HCC827): Add. (A value between −1 and 1 denoted “additivity”)

SMILES: CC(=O)c1c(C)c2cnc(Nc3ccc(N4CCNCC4)cn3)nc2n(C2CCCC2)c1=O [Palbociclib, palbociclib]
- combinatorial effect with tazemetostat (Loewe volume class) (A427): Syn. (Loewe volumes greater than 1 denoted “synergy”)
- combinatorial effect with tazemetostat (Loewe volume class) (A549): Add. (A value between −1 and 1 denoted “additivity”)
- combinatorial effect with tazemetostat (Loewe volume class) (NCI-H1299): Anta. (volumes <−1 denoted “antagonism”)
- combinatorial effect with tazemetostat (Loewe volume class) (NCI-H1573): Syn. (Loewe volumes greater than 1 denoted “synergy”)
- combinatorial effect with tazemetostat (Loewe volume class) (NCI-H1703): Anta. (volumes <−1 denoted “antagonism”)
- combinatorial effect with tazemetostat (Loewe volume class) (NCI-H1793): Syn. (Loewe volumes greater than 1 denoted “synergy”)
- combinatorial effect with tazemetostat (Loewe volume class) (NCI-H1993): Syn. (Loewe volumes greater than 1 denoted “synergy”)
- combinatorial effect with tazemetostat (Loewe volume class) (NCI-H2030): Add. (A value between −1 and 1 denoted “additivity”)
- combinatorial effect with tazemetostat (Loewe volume class) (NCI-H2110): Add. (A value between −1 and 1 denoted “additivity”)
- combinatorial effect with tazemetostat (Loewe volume class) (NCI-H2122): Anta. (volumes <−1 denoted “antagonism”)
- combinatorial effect with tazemetostat (Loewe volume class) (NCI-H23): Syn. (Loewe volumes greater than 1 denoted “synergy”)
- combinatorial effect with tazemetostat (Loewe volume class) (NCI-H460): Add. (A value between −1 and 1 denoted “additivity”)
- combinatorial effect with tazemetostat (Loewe volume class) (NCI-H522): No eff.
- combinatorial effect with tazemetostat (Loewe volume class) (NCI-H661): Syn. (Loewe volumes greater than 1 denoted “synergy”)
- combinatorial effect with tazemetostat (Loewe volume class) (NCI-H838): Add. (A value between −1 and 1 denoted “additivity”)
- combinatorial effect with tazemetostat (Loewe volume class) (Calu-3): Add. (A value between −1 and 1 denoted “additivity”)
- combinatorial effect with tazemetostat (Loewe volume class) (Calu-6): Add. (A value between −1 and 1 denoted “additivity”)
- combinatorial effect with tazemetostat (Loewe volume class) (HCC827): Add. (A value between −1 and 1 denoted “additivity”)
